From patent US20150183802A1, “TRICYCLIC SULFONAMIDE DERIVATIVES” (NOVARTIS AG, priority 2013, published 2015) come the findings set out here.

pIC50: −log10 of the molar value.

For one assay, the target named is T1, hNav1.7 channels (Homo sapiens, UniProt Q15858).
T1 construct: host or cells: HEK293
T1 sequence (Q15858 whole entry): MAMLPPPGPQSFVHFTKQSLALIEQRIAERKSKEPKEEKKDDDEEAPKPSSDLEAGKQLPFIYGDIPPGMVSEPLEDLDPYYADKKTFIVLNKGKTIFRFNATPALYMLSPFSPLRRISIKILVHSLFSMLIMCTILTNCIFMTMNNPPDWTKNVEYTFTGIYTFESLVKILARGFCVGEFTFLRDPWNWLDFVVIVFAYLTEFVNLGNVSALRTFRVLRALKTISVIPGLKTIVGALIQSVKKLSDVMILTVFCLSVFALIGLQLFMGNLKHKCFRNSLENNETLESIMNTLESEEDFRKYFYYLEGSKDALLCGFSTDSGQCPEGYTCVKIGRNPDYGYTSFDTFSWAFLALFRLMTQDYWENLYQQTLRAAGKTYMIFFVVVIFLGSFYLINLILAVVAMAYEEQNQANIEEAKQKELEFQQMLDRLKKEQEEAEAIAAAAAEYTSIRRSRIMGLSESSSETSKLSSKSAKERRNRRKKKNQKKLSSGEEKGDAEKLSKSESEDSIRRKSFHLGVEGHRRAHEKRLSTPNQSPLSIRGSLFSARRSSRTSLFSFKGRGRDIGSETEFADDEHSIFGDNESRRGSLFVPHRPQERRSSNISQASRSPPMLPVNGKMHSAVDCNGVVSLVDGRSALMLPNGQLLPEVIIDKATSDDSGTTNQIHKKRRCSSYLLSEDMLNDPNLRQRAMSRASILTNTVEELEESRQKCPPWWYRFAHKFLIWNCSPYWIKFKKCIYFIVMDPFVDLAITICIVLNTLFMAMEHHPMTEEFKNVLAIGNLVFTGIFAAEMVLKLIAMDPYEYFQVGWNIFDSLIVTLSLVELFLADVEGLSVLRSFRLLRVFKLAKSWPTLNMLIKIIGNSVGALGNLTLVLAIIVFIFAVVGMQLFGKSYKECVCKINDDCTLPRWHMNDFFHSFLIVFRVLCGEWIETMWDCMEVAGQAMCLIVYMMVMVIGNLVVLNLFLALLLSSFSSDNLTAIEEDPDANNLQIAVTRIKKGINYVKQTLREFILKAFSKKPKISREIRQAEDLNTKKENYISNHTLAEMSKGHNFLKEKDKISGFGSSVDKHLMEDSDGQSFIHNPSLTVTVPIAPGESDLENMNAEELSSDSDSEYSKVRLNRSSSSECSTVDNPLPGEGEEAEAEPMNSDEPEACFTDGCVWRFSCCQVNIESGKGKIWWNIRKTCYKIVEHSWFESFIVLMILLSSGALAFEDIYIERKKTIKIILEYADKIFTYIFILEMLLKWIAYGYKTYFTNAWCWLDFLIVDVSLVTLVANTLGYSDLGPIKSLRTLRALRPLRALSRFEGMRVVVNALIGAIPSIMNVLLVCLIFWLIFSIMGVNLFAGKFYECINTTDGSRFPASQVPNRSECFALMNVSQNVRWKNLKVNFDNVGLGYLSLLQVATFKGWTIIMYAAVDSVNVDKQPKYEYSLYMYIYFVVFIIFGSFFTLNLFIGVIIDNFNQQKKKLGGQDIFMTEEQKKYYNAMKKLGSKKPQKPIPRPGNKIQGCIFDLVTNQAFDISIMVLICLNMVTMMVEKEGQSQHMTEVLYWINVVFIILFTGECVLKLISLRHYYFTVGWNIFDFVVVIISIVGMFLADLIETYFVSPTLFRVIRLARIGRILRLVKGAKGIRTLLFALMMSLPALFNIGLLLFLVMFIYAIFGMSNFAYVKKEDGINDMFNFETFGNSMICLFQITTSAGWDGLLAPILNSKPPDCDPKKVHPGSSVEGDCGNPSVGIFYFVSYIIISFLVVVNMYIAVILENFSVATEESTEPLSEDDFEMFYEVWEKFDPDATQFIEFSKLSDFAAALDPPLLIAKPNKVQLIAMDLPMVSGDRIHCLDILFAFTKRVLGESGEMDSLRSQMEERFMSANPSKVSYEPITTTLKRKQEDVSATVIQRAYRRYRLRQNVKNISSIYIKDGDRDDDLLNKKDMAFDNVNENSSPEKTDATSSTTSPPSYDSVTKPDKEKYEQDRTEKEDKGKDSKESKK
The assay can be described thus: hNav1.7 channel in vitro patch-clamp assay. It counts as cell-based. Conditions: stable HEK293 cell line expressing hNav1.7; whole cell patch-clamp. As to the method:
hNav1.7 Channel In Vitro Patch-Clamp Assay
Cells: Sable HEK293 (human embryonic kidney) cell line expressing hNav1.7 channels was used in the assay. The cell line was obtained from Millipore (Millipore Corporation, MA).
Patch-clamp recordings: The recordings were performed on QPatch HTX (Sophion Bioscience, Denmark) and/or conventional patch-clamp (Axon Multiclamp 700B systems, Molecular Devices, CA) platforms at room temperature, using whole cell patch-clamp techniques. The composition of extracellular solution was (in mM): HEPES 5, NaCl 40, KCl 3, CaCl2 1, MgCl2 1, Choline Chloride 100. Adjust pH to 7.2 with 1N NaOH, osmolarity to 300-310 mOsm with sucrose. The composition of intracellular solution was (in mM): HEPES 10, NaCl 10, Na2ATP 1, MgCl2 2, KF 135, EGTA 10. Adjust pH to 7.2 with 1N NaOH, osmolarity to 290-300 mOsm with sucrose.
For conventional patch-clamp, 35 mm culture dishes containing hNav1.7 cells were placed on the stage of an inverted microscope and continuously perfused with extracellular solution from a perfusion system (Biologic Rapid solution changer, RSC-160, ˜1 ml/min). […] The recordings were controlled by pCLAMP10 software. Test compounds were dissolved in 100% DMSO to make stock solutions for each test concentration, and then diluted into extracellular solution to achieve final concentration for testing. Final DMSO concentration was less than 0.3%. Two voltage protocols were used in hNav1.7 assay: for non-inactivated protocol, the sodium currents were elicited by a 2 ms pulse to −10 mV from a holding potential of −110 mV. For inactivated protocol, the holding potential was set at V1/2. The voltage was firstly stepped to −110 mV for 50 ms, then to −10 mV for 2 ms and then stepped back to holding potential. In both protocols the voltage command was given in every 10 s. Compound effect (% inhibition) was determined by difference in current amplitude before and after the application of test compounds. IC50 values were determined from concentration-response curves that were obtained with Hill fitting.
For QPatch HTX assay, hNav1.7 cells grown to 50%-80% confluence were rinsed with DPBS and dissociated with Tryple (Invitrogen, 12605-010). The dissociated cells were then mixed with extracellular solution. After centrifuge, the cells were resuspended in extracellular solution and used in the QPatch experiment. The whole-cell protocols, voltage protocols and application protocols were established with QPatch Assay Software 3.4 (Sophion Bioscience, Denmark). Only the inactivated protocol was used in the QPatch assay.
(In general: Patch clamp records ionic current or voltage across a cell membrane.)
For the molecule `CC(C)COc1ncc(N2C(=O)C3(CC3)c3cc4c(NS(=O)(=O)N5CCC5)noc4cc32)cc1Cl` [N-(7′-(5-chloro-6-isobutoxypyridin-3-yl)-6′-oxo-6′,7′-dihydrospiro[cyclopropane-1,5′-isoxazolo[4,5-f]indol]-3′-yl)azetidine-1-sulfonamide], the “activity in the hNav1.7 patch-clamp assay (in words)” value is reported as “did not show any activity”.

Still in this assay, the particulars now being: stable HEK293 cell line expressing hNav1.7; whole cell patch-clamp (QPatch HTX and/or conventional), room temperature; voltage protocol not given.
A word on the pIC50: it is the IC50 on a negative log10 scale, so that one unit is a factor of ten. A lower pIC50 goes with a large IC50. In the case of `CC(C)COc1ncc(-c2nn(C)c3cc4c(NS(=O)(=O)C5CC5)noc4cc23)cc1Cl` [Example 47, N-(7-(5-chloro-6-isobutoxypyridin-3-yl)-5-methyl-5H-isoxazolo[5,4-f]indazol-3-yl)cyclopropanesulfonamide], the pIC50 is 6.40.

`CC(C)COc1ncc(-n2cc(C#N)c3cc4c(NS(=O)(=O)C5CC5)noc4cc32)cc1Cl` [Example 48, N-(7-(5-chloro-6-isobutoxypyridin-3-yl)-5-cyano-7H-isoxazolo[4,54]indol-3-yl)cyclopropanesulfonamide] showed a pIC50 of 6.66.

Molecule `CC(C)COc1ncc(-n2cc(C(N)=O)c3cc4c(NS(=O)(=O)C5CC5)noc4cc32)cc1Cl` [Example 49, 7-(5-chloro-6-isobutoxypyridin-3-yl)-3-(cyclopropanesulfonamido)-7H-isoxazolo[4,5-f]indole-5-carboxamide] gave a negative-log IC50 (pIC50) of 5.93.

For `CC(C)COc1ncc(-c2nccc3cc4c(NS(=O)(=O)C5CC5)noc4cc23)cc1Cl` [Example 50, N-(8-(5-chloro-6-isobutoxypyridin-3-yl)isoxazolo[4,5-g]isoquinolin-3-yl)cyclopropanesulfonamide], the negative-log IC50 (pIC50) was 6.96.

For the molecule `CC(C)COc1ncc(-c2nccc3cc4c(NS(C)(=O)=O)noc4cc23)cc1Cl` [Example 51, N-(8-(5-chloro-6-isobutoxypyridin-3-yl)isoxazolo[4,5-g]isoquinolin-3-yl)methanesulfonamide], the negative logarithm of the IC50 (pIC50) is 6.52.

`O=S(=O)(Nc1noc2cc3c(-c4ccc(Cl)c(Cl)c4)nccc3cc12)C1CC1` [Example 52] showed a pIC50 of 6.10.

Molecule `CC(C)COc1ncc(-c2nccc3cc4c(NS(=O)(=O)N(C)C)noc4cc23)cc1Cl` [Example 53, N-(8-(5-chloro-6-isobutoxypyridin-3-yl)isoxazolo[4,5-g]isoquinolin-3-yl)N—N-dimethylsulfamide] had a pIC50 of 5.97.

The molecule `CC(C)COc1ncc(-c2ccnc3cc4c(NS(=O)(=O)C5CC5)noc4cc23)cc1Cl` [Example 55, N-(8-(5-chloro-6-isobutoxypyridin-3-yl)isoxazolo[5,4-g]quinolin-3-yl)cyclopropanesulfonamide] showed a negative logarithm of the IC50 (pIC50) of 6.07.

Molecule `CC(C)COc1ncc(-c2cncc3cc4c(NS(C)(=O)=O)noc4cc23)cc1Cl` [Example 57, N-(8-(5-chloro-6-isobutoxypyridin-3-yl)isoxazolo[5,4-g]isoquinolin-3-yl)methanesulfonamide] showed a pIC50 of 5.63.

`CC(C)COc1ncc(-c2cccc3cc4c(NS(=O)(=O)C5CC5)noc4cc23)cc1Cl` [Example 58, N-(8-(5-chloro-6-isobutoxypyridin-3-yl)naphtho[2,3-d]isoxazol-3-yl)cyclopropanesulfonamide] showed a negative-log IC50 (pIC50) of 8.00.

The molecule `Cc1cnc(-c2cnc(OCC(C)C)c(Cl)c2)c2cc3onc(NS(=O)(=O)C4CC4)c3cc12` [Example 60, N-(8-(5-chloro-6-isobutoxypyridin-3-yl)-5-methylisoxazolo[4,5-g]isoquinolin-3-yl)cyclopropanesulfonamide] had a negative logarithm of the IC50 (pIC50) of 5.73.

For the molecule `Cc1cc2cc3c(NS(=O)(=O)C4CC4)noc3cc2c(-c2cnc(OCC(C)C)c(Cl)c2)n1` [Example 61, N-(8-(5-chloro-6-isobutoxypyridin-3-yl)-6-methylisoxazolo[4,5-g]isoquinolin-3-yl)cyclopropanesulfonamide], the negative logarithm of the IC50 (pIC50) was 6.29.

In turn, `CC(C)COc1ncc(N2C(=O)C3(CC3)Oc3cc4c(NS(=O)(=O)C5CC5)noc4cc32)cc1Cl` [Example 62, N-(8′-(5-chloro-6-isobutoxypyridin-3-yl)-7′-oxo-7′,8′-dihydrospiro[cyclopropane-1,6′-isoxazolo[5′,4′:4,5]benzo[1,2-b][1,4]oxazin]-3′-yl)cyclopropanesulfonamide] gave a negative logarithm of the IC50 (pIC50) of 7.00.

Turning to `CC(C)COc1ncc(N2CCOc3cc4c(NS(C)(=O)=O)noc4cc32)cc1Cl` [Example 63, N-(8-(5-chloro-6-isobutoxypyridin-3-yl)-7,8-dihydro-6H-isoxazolo[5′,4′:4,5]benzo[1,2-b][1,4]oxazin-3-yl)methanesulfonamide], the negative logarithm of the IC50 (pIC50) is 6.28.
